The experiment deals with BRD4 (Homo sapiens, UniProt O60885). The experiment in a line: Time Resolved Fluorescence Resonance Energy Transfer (TR-FRET) binding assay, BRD4. Conditions: one of the FRET assays described; read-out: FRET BRD4 IC50.

`Cc1nnn(C)c1-c1cnc2c3ccc(C(C)(C)O)cc3n([C@@H](CCC(F)(F)F)c3ccccc3)c2c1` [Example 57]: the half-inhibitory concentration (IC50) was less than 5 nM.

In the case of `Cc1nnn(C)c1-c1cnc2c3ccc(C(C)(C)O)cc3n([C@H](CCC(F)(F)F)c3ccccc3)c2c1` [Example 58], the IC50 was less than 5 nM.

On to `Cc1nnn(C)c1-c1cnc2c3ccc(C(C)(C)O)cc3n([C@H](c3ccccn3)C3CCOCC3)c2c1` [Example 62], for which the IC50 was less than 25 nM.

Turning to `Cc1nnn(C)c1-c1cnc2c3ccc(C(C)(C)O)cc3n([C@@H](c3ccccn3)C3CCOCC3)c2c1` [Example 63], the IC50 was less than 25 nM.

With `Cc1nnn(C)c1-c1cnc2c3ccc(C(C)(C)O)cc3n([C@H](c3ccccc3F)C3CCOCC3)c2c1` [Example 64], the IC50 was less than 5 nM.

`Cc1nnn(C)c1-c1cnc2c3ccc(C(C)(C)O)cc3n([C@@H](c3ccccc3F)C3CCOCC3)c2c1` [Example 65]: the IC50 is less than 5 nM.

`Cc1nnn(C)c1-c1cnc2c3ccc(C(C)(C)O)cc3n(Cc3ccccc3)c2c1` [Example 69, 2-[5-Benzyl-3-(dimethyl-1H-1,2,3-triazol-5-yl)-5H-pyrido[3,2-b]indol-7-yl]propan-2-ol]: the IC50 was less than 5 nM.

As to `Cc1nnn(C)c1-c1cnc2c3ccc(C(C)(C)O)cc3n([C@H](c3ccc(F)cc3)C3CCOCC3)c2c1` [Example 72], the IC50 is less than 25 nM.

With `Cc1nnn(C)c1-c1cnc2c3ccc(C(C)(C)O)cc3n([C@H](c3ccccc3F)C3CCOCC3)c2c1` [Example 76], the IC50 is less than 5 nM.

In the case of `Cc1nnn(C)c1-c1cnc2c3ccc(C(C)(C)O)cc3n([C@@H](c3ccccc3F)C3CCOCC3)c2c1` [Example 77], the half-inhibitory concentration (IC50) was less than 5 nM.

On to `Cc1noc(C)c1-c1cnc2c3ccc(C(C)(C)O)cc3n([C@H](CCC(F)(F)F)c3ccccc3C(F)(F)F)c2c1` [Example 84], for which the IC50 is less than 1500 nM.

In the case of `Cc1noc(C)c1-c1cnc2c3ccc(C(C)(C)O)cc3n([C@@H](CCC(F)(F)F)c3ccccc3Cl)c2c1` [Example 86], the IC50 was less than 5 nM.

On to `Cc1noc(C)c1-c1cnc2c3ccc(C(C)(C)O)cc3n([C@H](CCC(F)(F)F)c3ccccc3Cl)c2c1` [Example 87], for which the IC50 was less than 1500 nM.

With `Cn1nnc(CO)c1-c1cnc2c3ccc(C(C)(C)O)cc3n([C@H](c3ccccc3)C3CCOCC3)c2c1` [Example 88, (S)-2-(3-(4-(Hydroxymethyl)-1-methyl-1H-1,2,3-triazol-5-yl)-5-(phenyl(tetrahydro-2H-pyran-4-yl)methyl)-5H-pyrido[3,2-b]indol-7-yl)propan-2-ol], the IC50 is less than 5 nM.

`COCc1nnn(C)c1-c1cnc2c3ccc(C(C)(C)O)cc3n([C@H](c3ccccc3)C3CCOCC3)c2c1` [Example 89, 2-{3-[4-(Methoxymethyl)-1-methyl-1H-1,2,3-triazol-5-yl]-5-[(S)-oxan-4-yl(phenyl)methyl]-5H-pyrido[3,2-b]indol-7-yl}propan-2-ol]: the IC50 was less than 25 nM.

For the compound `[2H][C@@](c1ccccc1)(C1CCOCC1)n1c2cc(C(C)(C)O)ccc2c2ncc(-c3c(C)nnn3C)cc21` [Example 90, 2-[3-(Dimethyl-1H-1,2,3-triazol-5-yl)-5-[(S)-oxan-4-yl(phenyl)(^2H)methyl]-5H-pyrido[3,2-b]indol-7-yl]propan-2-ol], the IC50 is less than 5 nM.

Take `Cc1nnn(C)c1-c1cnc2c3ccc(C(C)(C)O)cc3n([C@@H](c3ccccc3)C3CCOCC3)c2c1` [Example 91, 2-[3-(dimethyl-1H-1,2,3-triazol-5-yl)-5-[(R)-oxan-4-yl(phenyl)(^2H)methyl]-5H-pyrido[3,2-b]indol-7-yl]propan-2-ol]: the IC50 was less than 25 nM.

Consider `[2H][C@@](c1ccccc1F)(C1CCOCC1)n1c2cc(C(C)(C)O)ccc2c2ncc(-c3c(C)nnn3C)cc21` [Example 92, 2-[3-(Dimethyl-1H-1,2,3-triazol-5-yl)-5-[(S)-oxan-4-yl(2-fluorophenyl)(^2H)methyl]-5H-pyrido[3,2-b]indol-7-yl]propan-2-ol], for which the IC50 was less than 5 nM.

Take `Cc1nnn(C)c1-c1cnc2c3ccc(C(C)(C)O)cc3n([C@@H](c3ccccc3F)C3CCOCC3)c2c1` [Example 93, 2-[3-(dimethyl-1H-1,2,3-triazol-5-yl)-5-[(R)-oxan-4-yl(2-fluorophenyl)(^2H)methyl]-5H-pyrido[3,2-b]indol-7-yl]propan-2-ol]: the IC50 is less than 5 nM.

With `Cc1nnn(C)c1-c1cnc2c3c(F)cc(C(C)(C)O)cc3n([C@H](c3ccccc3F)C3CCOCC3)c2c1` [Example 114, 2-[3-(Dimethyl-1H-1,2,3-triazol-5-yl)-9-fluoro-5-[(S)-(2-fluorophenyl)(oxan-4-yl)methyl]-5H-pyrido[3,2-b]indol-7-yl]propan-2-ol], the IC50 was less than 5 nM.

For `Cc1nnn(C)c1-c1cnc2c3c(C(=O)NC4CC4)cccc3n([C@H](c3ccccc3)C3CCOCC3)c2c1` [Example 151, N-Cyclopropyl-3-(dimethyl-1H-1,2,3-triazol-5-yl)-5-[(S)-oxan-4-yl(phenyl)methyl]-5H-pyrido[3,2-b]indole-9-carboxamide], the IC50 was less than 5 nM.

As for `Cc1nnn(C)c1-c1cnc2c3c(F)ccc(CO)c3n([C@H](c3ccccc3)C3CCOCC3)c2c1` [Example 152, [3-(Dimethyl-1H-1,2,3-triazol-5-yl)-9-fluoro-5-[(S)-oxan-4-yl(phenyl)methyl]-5H-pyrido[3,2-b]indol-6-yl]methanol], the IC50 was less than 5 nM.

With `Cc1nnn(C)c1-c1cnc2c3cc(CCC(C)(C)O)ccc3n([C@H](c3ccccc3)C3CCOCC3)c2c1` [Example 153, 4-[3-(Dimethyl-1H-1,2,3-triazol-5-yl)-5-[(S)-oxan-4-yl(phenyl)methyl]-5H-pyrido[3,2-b]indol-8-yl]-2-methylbutan-2-ol], the half-maximal inhibitory concentration (IC50) was less than 5 nM.

`[2H]C([2H])([2H])c1nnn(C)c1-c1cnc2c3ccc(S(C)(=O)=O)cc3n(C(c3ccccc3)C3CCC(F)(F)CC3)c2c1` (stereo not drawn) [Example 158, 5-{5-[(4,4-Difluorocyclohexyl)(phenyl)methyl]-7-methanesulfonyl-5H-pyrido[3,2-b]indol-3-yl}-4-(^2H3)methyl-1-methyl-1H-1,2,3-triazole]: the IC50 was less than 5 nM.

With `[2H]C([2H])([2H])c1nnn(C)c1-c1cnc2c3ccc(S(C)(=O)=O)cc3n(C(c3ccccc3)C3CCC(F)(F)CC3)c2c1` (stereo not drawn) [Example 159, 5-{5-[(4,4-Difluorocyclohexyl)(phenyl)methyl]-7-methanesulfonyl-5H-pyrido[3,2-b]indol-3-yl}-4-(^2H3)methyl-1-methyl-1H-1,2,3-triazole], the IC50 is less than 5 nM.

For `Cc1nnn(C)c1-c1cnc2c3c(S(C)(=O)=O)cc(F)c(F)c3n([C@H](c3ccccc3)C3CCOCC3)c2c1` [Example 160, 5-{6,7-Difluoro-9-methanesulfonyl-5-[(S)-oxan-4-yl(phenyl)methyl]-5H-pyrido[3,2-b]indol-3-yl}-1,4-dimethyl-1H-1,2,3-triazole], the IC50 is less than 5 nM.

On to `[2H]C([2H])([2H])c1nnn(C)c1-c1cnc2c3c(S(C)(=O)=O)cc(F)c(F)c3n([C@H](c3ccccc3)C3CCOCC3)c2c1` [Example 161, 5-{6,7-Difluoro-9-methanesulfonyl-5-[(S)-oxan-4-yl(phenyl)methyl]-5H-pyrido[3,2-b]indol-3-yl}-4-(^2H3)methyl-1-methyl-1H-1,2,3-triazole], for which the concentration for half-maximal inhibition (IC50) is less than 5 nM.

As to `[2H]C([2H])([2H])c1nnn(C)c1-c1cnc2c3c(S(C)(=O)=O)cc(OC)c(OC)c3n([C@H](c3ccccc3)C3CCOCC3)c2c1` [Example 162, 5-{9-Methanesulfonyl-6,7-dimethoxy-5-[(S)-oxan-4-yl(phenyl)methyl]-5H-pyrido[3,2-b]indol-3-yl}-4-(^2H3)methyl-1-methyl-1H-1,2,3-triazole], the IC50 was less than 5 nM.

Take `[2H]C([2H])([2H])c1nnn(C)c1-c1cnc2c3c(S(C)(=O)=O)cc(F)c(OC)c3n([C@H](c3ccccc3)C3CCOCC3)c2c1` [Example 163, 5-{7-Fluoro-9-methanesulfonyl-6-methoxy-5-[(S)-oxan-4-yl(phenyl)methyl]-5H-pyrido[3,2-b]indol-3-yl}-4-(^2H3)methyl-1-methyl-1H-1,2,3-triazole]: the IC50 was less than 5 nM.

Turning to `Cc1noc(C)c1-c1cnc2c3ccc(S(C)(=O)=O)cc3n([C@H](c3ccccc3)C3CCOCC3)c2c1` [Example 171, 4-{7-Methanesulfonyl-5-[(S)-oxan-4-yl(phenyl)methyl]-5H-pyrido[3,2-b]indol-3-yl}-3,5-dimethyl-1,2-oxazole], the IC50 was less than 5 nM.

Turning to `Cc1noc(C)c1-c1cnc2c3ccc(S(C)(=O)=O)cc3n([C@H](c3ccc(F)cc3)C3CCOCC3)c2c1` [Example 172, 4-{5-[(S)-(4-Fluorophenyl)(oxan-4-yl)methyl]-7-methanesulfonyl-5H-pyrido[3,2-b]indol-3-yl}-3,5-dimethyl-1,2-oxazole], the IC50 is less than 5 nM.

As to `Cc1noc(C)c1-c1cnc2c3ccc(S(C)(=O)=O)cc3n([C@H](c3ccccc3F)C3CCOCC3)c2c1` [Example 173], the IC50 is less than 5 nM.

As to `Cc1noc(C)c1-c1cnc2c3ccc(S(C)(=O)=O)cc3n([C@@H](c3ccccc3F)C3CCOCC3)c2c1` [Example 174], the IC50 was less than 5 nM.

For the compound `Cc1nnn(C)c1-c1cnc2c3cc(C(C)(C)O)ccc3n([C@H](c3ccccc3)C3CCOCC3)c2c1` [Example 175, 2-[3-(Dimethyl-1H-1,2,3-triazol-5-yl)-5-[(S)-oxan-4-yl(phenyl)methyl]-5H-pyrido[3,2-b]indol-8-yl]propan-2-ol], the 50% inhibitory concentration (IC50) was less than 5 nM.

As for `Cc1nnn(C)c1-c1cnc2c3cc(C(C)(C)O)ccc3n([C@H](c3ccc(F)cc3)C3CCOCC3)c2c1` [Example 176, 2-[3-(Dimethyl-1H-1,2,3-triazol-5-yl)-5-[(S)-(4-fluorophenyl)(oxan-4-yl)methyl]-5H-pyrido[3,2-b]indol-8-yl]propan-2-ol], the IC50 was less than 5 nM.

Take `Cc1nnn(C)c1-c1cnc2c3ccc(S(C)(=O)=O)cc3n([C@H](c3ccccc3)C3CCOCC3)c2c1` [Example 177, 5-{7-Methanesulfonyl-5-[(S)-oxan-4-yl(phenyl)methyl]-5H-pyrido[3,2-b]indol-3-yl}-1,4-dimethyl-1H-1,2,3-triazole]: the half-maximal inhibitory concentration (IC50) is less than 5 nM.

What is called IC50 is the midpoint of a concentration-inhibition curve.

Source of the values: patent US10112941B2, “Tricyclic compounds as anticancer agents” (BRISTOL-MYERS SQUIBB COMPANY, priority 2013, dated 2018).
